Measurements reported in patent US9295626B2, “Compositions comprising isosorbide monoester and N-hydroxypyridones” (Clariant International Ltd., priority 2011, dated 2016).

Columns and labels:
[1] = system: bacteria, fungi and yeasts; conditions: general statement, no test described, cited from earlier work
[2] = system: bacteria, fungi and yeasts; test: Antimicrobial activity overall; format: cell-based
Source text: Below, the antimicrobial efficacy of a composition according to the invention consisting of 50% by weight of isorbide caprylate 1 and 50% by weight of a 10% by weight strength solution of the monoethanolamine salt of 4-methyl-6-(2,4,4-trimethylpentyl)-1-hydroxy-2-pyridone (Octopirox®, 100% by weight strength, Clariant) in butyl polyglycol against bacteria, fungi and yeasts is examined (hereinbelow, the composition is referred to as “composition A”). For the tests with bacteria, composition A was diluted with butyl polyglycol and then, at 50° C., added to liquid CASO agar (casein-peptone agar) buffered to pH 7 (+/−0.2) in various concentrations (hereinbelow referred to as compositions B1, B2, etc.). […]
The minimum inhibitory concentrations for the pure substances isosorbide caprylate 1 and Octopirox® were determined analogously. […]
(§1) Analogously to the determination of the antimicrobial activity according to the above example B), the antimicrobial activity of a mixture comprising, firstly, 89.6% by weight of isosorbide dicaprylate and 9.4% by weight of isosorbide monocaprylate (remainder: 1% by weight) (hereinbelow referred to as “isosorbide dicaprylate”) and, secondly, pure isosorbide was determined in further test series.

[3] = system: Klebsiella pneumoniae; test: Antimicrobial efficacy, MIC by agar dilution; format: cell-based; conditions: CASO agar pH 7
Source text: (§2) Below, the antimicrobial efficacy of a composition according to the invention consisting of 50% by weight of isorbide caprylate 1 and 50% by weight of a 10% by weight strength solution of the monoethanolamine salt of 4-methyl-6-(2,4,4-trimethylpentyl)-1-hydroxy-2-pyridone (Octopirox®, 100% by weight strength, Clariant) in butyl polyglycol against bacteria, fungi and yeasts is examined (hereinbelow, the composition is referred to as “composition A”). For the tests with bacteria, composition A was diluted with butyl polyglycol and then, at 50° C., added to liquid CASO agar (casein-peptone agar) buffered to pH 7 (+/−0.2) in various concentrations (hereinbelow referred to as compositions B1, B2, etc.). For the tests with fungi and yeasts, composition A was diluted with butyl polyglycol and then added to liquid Sabouraud 4% dextrose agar buffered to pH 5.6 (+/−0.2) in various concentrations (hereinbelow referred to as compositions PH1, PH2, etc.). The compositions B1, B2, etc. and PH1, PH2 etc. were each poured into Petri dishes and each inoculated with identical amounts of bacteria, fungi and yeasts. The minimum inhibitory concentration (MIC) is the concentration at which inhibition of the growth of the bacteria, fungi and yeasts in the compositions B1, B2, etc. and PH1, PH2, etc. occurs.
(§3) The minimum inhibitory concentrations for the pure substances isosorbide caprylate 1 and Octopirox® were determined analogously.
(§4) The values determined for the minimum inhibitory concentrations “MIC mixture”, stated in Table 1 below, are based on the concentrations of composition A.
(§5) The values determined for the minimum inhibitory concentrations “QA” and “QB”, stated in Table 1 below, have already been corrected for the dilution effect of the butyl polyglycol.
(§6) Kull et al., Applied Microbiology 1961, 9, 538 using the formula below: SE=Qa/QA+Qb/QB where • Qa is the minimum inhibitory concentration of isosorbide caprylate 1 in the mixture employed, • QA is the minimum inhibitory concentration of isosorbide caprylate 1, • Qb is the minimum inhibitory concentration of Octopirox® in the mixture employed and • QB is the minimum inhibitory concentration of Octopirox®.
(§7) The values for Qa and Qb are determined from the values for the mixtures (“MIC mixture”) by multiplying the minimum inhibitory concentrations determined for Qa with the factor 0.5 and for Qb with the factor 0.05, because of the proportions of the ingredients—50% by weight of isosorbide caprylate 1 and 50% by weight of a 10% by weight strength solution of Octopirox® in butyl polyglycol—in composition A according to the invention examined.
(§8) If an SE value>1 is obtained, an antagonistic effect is present.
as §1

[4] = system: Penicillium minioluteum; test: Antimicrobial efficacy, MIC by agar dilution; format: cell-based; conditions: Sabouraud 4% dextrose agar pH 5.6
Source text: as §2, §3, §4, §5, §6, §7, §8, §1

[5] = system: Aspergillus terreus; test: Antimicrobial efficacy, MIC by agar dilution; format: cell-based; conditions: Sabouraud 4% dextrose agar pH 5.6
Source text: as §2, §3, §4, §5, §6, §7, §8, §1

[6] = system: Fusarium solani; test: Antimicrobial efficacy, MIC by agar dilution; format: cell-based; conditions: Sabouraud 4% dextrose agar pH 5.6
Source text: as §2, §3, §4, §5, §6, §7, §8, §1

[7] = system: Candida albicans; test: Antimicrobial efficacy, MIC by agar dilution; format: cell-based; conditions: Sabouraud 4% dextrose agar pH 5.6
Source text: as §2, §3, §4, §5, §6, §7, §8, §1

[8] = system: Staphylococcus aureus; test: Antimicrobial efficacy, MIC by agar dilution; format: cell-based; conditions: CASO agar pH 7
Source text: as §2, §3, §4, §5, §6, §7, §8, §1

[9] = system: Aspergillus brasiliensis; test: Antimicrobial efficacy, MIC by agar dilution; format: cell-based; conditions: Sabouraud 4% dextrose agar pH 5.6
Source text: as §2, §3, §4, §5, §6, §7, §8, §1

[10] = system: Citrobacter freundii; test: Antimicrobial efficacy, MIC by agar dilution; format: cell-based; conditions: CASO agar pH 7
Source text: as §2, §3, §4, §5, §6, §7, §8, §1

[11] = system: Enterobacter aerogenes; test: Antimicrobial efficacy, MIC by agar dilution; format: cell-based; conditions: CASO agar pH 7
Source text: as §2, §3, §4, §5, §6, §7, §8, §1

[12] = system: Pseudomonas aeruginosa; test: Antimicrobial efficacy, MIC by agar dilution; format: cell-based; conditions: CASO agar pH 7
Source text: as §2, §3, §4, §5, §6, §7, §8, §1

[13] = system: Penicillium funicolosium; test: Antimicrobial efficacy, MIC by agar dilution; format: cell-based; conditions: Sabouraud 4% dextrose agar pH 5.6
Source text: as §2, §3, §4, §5, §6, §7, §8, §1

[14] = system: Proteus vulgaris; test: Antimicrobial efficacy, MIC by agar dilution; format: cell-based; conditions: CASO agar pH 7
Source text: as §2, §3, §4, §5, §6, §7, §8, §1

[15] = system: Escherichia coli; test: Antimicrobial efficacy, MIC by agar dilution; format: cell-based; conditions: CASO agar pH 7
Source text: as §2, §3, §4, §5, §6, §7, §8, §1

[16] = system: Pseudomonas oleovorans; test: Antimicrobial efficacy, MIC by agar dilution; format: cell-based; conditions: CASO agar pH 7
Source text: as §2, §3, §4, §5, §6, §7, §8, §1

[17] = MIC of Octopirox alone, corrected for butyl polyglycol dilution
[18] = MIC of Octopirox in the mixture (MIC mixture x 0.05)

In the case of `CCCCCCCC(=O)O` [caprylic acid], the antimicrobial efficacy [1] is listed as “antimicrobially effective” and the “antimicrobial activity at a pH of 6 or above” value ([1]; pH of 6 or above) is listed as “no antimicrobial activity”.

For `O[C@@H]1CO[C@H]2[C@@H]1OC[C@@H]2O` [isosorbide], the “antimicrobial activity (summary of Table 2)” value ([2]; all bacteria, fungi and yeasts of Table 2) was “neither isosorbide nor isosorbide dicaprylate are antimicrobially active”.

In the case of `Cc1cc(CC(C)CC(C)(C)C)n(O)c(=O)c1.NCCO` (centres unmarked) [Octopirox®, monoethanolamine salt of 4-methyl-6-(2,4,4-trimethylpentyl)-1-hydroxy-2-pyridone], the “OB, meas.” value [3, 17] is reported as 50 ppm, the “Ob, calc.” value [3, 18] is reported as 25 ppm and the “OB, meas.” value [4, 17] is reported as 20 ppm. For the same molecule, the “Ob, calc.” value [4, 18] was 10 ppm, the “OB, meas.” value [5, 17] was 20 ppm and the “Ob, calc.” value [5, 18] was 10 ppm. For the same molecule, the “OB, meas.” value [6, 17] was 20 ppm, the “Ob, calc.” value [6, 18] was 10 ppm and the “OB, meas.” value [7, 17] was 20 ppm. The “Ob, calc.” value [7, 18] was 10 ppm, the “OB, meas.” value [8, 17] was 25 ppm and the “Ob, calc.” value [8, 18] was 25 ppm. For the same molecule, the “OB, meas.” value [9, 17] was 20 ppm, the “Ob, calc.” value [9, 18] was 10 ppm and the “OB, meas.” value [10, 17] was 50 ppm. The “Ob, calc.” value [10, 18] was 25 ppm, the “OB, meas.” value [11, 17] was 100 ppm and the “Ob, calc.” value [11, 18] was 25 ppm. For the same molecule, the “OB, meas.” value [12, 17] was 25 ppm, the “Ob, calc.” value [12, 18] was 25 ppm and the “OB, meas.” value [13, 17] was 20 ppm. The “Ob, calc.” value [13, 18] was 10 ppm, the “OB, meas.” value [14, 17] was 25 ppm and the “Ob, calc.” value [14, 18] was 12.5 ppm. The “OB, meas.” value [15, 17] was 25 ppm, the “Ob, calc.” value [15, 18] was 25 ppm and the “OB, meas.” value [16, 17] was 50 ppm. The “Ob, calc.” value [16, 18] was 25 ppm.

With isosorbide monocaprylate the “antimicrobial activity (concluded)” value ([2]; concluded from QA of isosorbide caprylate 1 and inactivity of its other constituents) was “significant antimicrobial activity”.
